Experimental data from ChEMBL document CHEMBL1141717, “New functionalized 1,2,4-trioxepanes: synthesis and antimalarial activity against multi-drug resistant P. yoelii in mice” (2008).
Calls of active or inactive are those of the source. The rule behind the calls is not given here.

Legend:
[1] = test system: Plasmodium yoelii nigeriensis; test: Antimalarial activity as reduced parasitaemia against multidrug-resistant Plasmodium yoelii nigeriensis infected Swiss mice (Mus musculus) at 96mg/kg peroral dose at day 4; format: functional; design: scale not given: the % may be the effect or the level left
[2] = test system: Plasmodium yoelii nigeriensis; test: Antimalarial activity as reduced parasitaemia against multidrug-resistant Plasmodium yoelii nigeriensis infected Swiss mice (Mus musculus) at 96 mg/kg intramuscular dose at day 4; format: functional; design: scale not given: the % may be the effect or the level left
[3] = test system: Plasmodium yoelii nigeriensis; test: Antimalarial activity as survivor numbers against multidrug-resistant Plasmodium yoelii nigeriensis infected Swiss mice (Mus musculus) at 96 mg/kg peroral dose at day 28; format: functional, organism-based; design: dose 96 mg/kg
[4] = test system: Plasmodium yoelii nigeriensis; test: Antimalarial activity as survivor numbers against multidrug-resistant Plasmodium yoelii nigeriensis infected Swiss mice (Mus musculus) at 96 mg/kg intramuscular dose at day 28; format: functional, organism-based; design: dose 96 mg/kg
[5] = test system: Plasmodium yoelii nigeriensis; test: Antimalarial activity as reduced parasitaemia against multidrug-resistant Plasmodium yoelii nigeriensis infected Swiss mice (Mus musculus) at 96 mg/kg peroral dose at day 28; format: functional; design: scale not given: the % may be the effect or the level left; conditions: route oral
[6] = test system: Plasmodium yoelii nigeriensis; test: Antimalarial activity as reduced parasitaemia against multidrug-resistant Plasmodium yoelii nigeriensis infected Swiss mice (Mus musculus) at 48 mg/kg peroral dose at day 4; format: functional; design: scale not given: the % may be the effect or the level left; conditions: route oral
[7] = test system: Plasmodium yoelii nigeriensis; test: Antimalarial activity as survivor numbers against multidrug-resistant Plasmodium yoelii nigeriensis infected Swiss mice (Mus musculus) at 48 mg/kg peroral dose at day 28; format: functional, organism-based; design: dose 48 mg/kg

SMILES	Activity [1] [%]	Activity [2] [%]	Activity [3]	Activity [4]	Activity [5] [%]	Activity [6] [%]	Activity [7]
C=C(c1ccc(-c2ccccc2)cc1)C1CCOC2(CCC(Nc3ccc(C(F)(F)F)cc3)CC2)OO1 (mixture of isomers)	68.3	75.84	inactive	inactive			
C=C(c1ccccc1)C1CCOC2(CCC(=CC(=O)OCC)CC2)OO1 (mixture of isomers)	88.76	43.58	inactive	inactive			
C=C(c1ccc(-c2ccccc2)cc1)C1CCOC2(CCC(=CC(=O)OCC)CC2)OO1 (mixture of isomers)	95.18	35.32	inactive	inactive			
C=C(c1ccccc1)C1CCOC2(CCC(Nc3ccccc3)CC2)OO1 (mixture of isomers)	78.58	75.47	inactive	inactive			
C=C(c1ccccc1)C1CCOC2(CCC(Nc3ccc(F)cc3)CC2)OO1 (mixture of isomers)	63.18	50	inactive	inactive			
C=C(c1ccc(Cl)cc1)C1CCOC2(CCC(Nc3ccccc3)CC2)OO1 (mixture of isomers)	98.49	32.07	inactive	inactive			
C=C(c1ccc(Cl)cc1)C1CCOC2(CCC(Nc3ccc(F)cc3)CC2)OO1 (mixture of isomers)	41.51	58.37	inactive	inactive			
C=C(c1ccc(-c2ccccc2)cc1)C1CCOC2(CCC(Nc3ccccc3)CC2)OO1 (mixture of isomers)	100	99.01		inactive	75		
C=C(c1ccc(-c2ccccc2)cc1)C1CCOC2(CCC(Nc3ccc(F)cc3)CC2)OO1 (mixture of isomers)	98.08	57.69	inactive	inactive			
C=C(c1ccc(Cl)cc1)C1CCOC2(CCC(=CC(=O)OCC)CC2)OO1 (mixture of isomers)	85.87	41.11	inactive	inactive			
C=C(c1ccc(Cl)cc1)C1CCOC2(CCC(Nc3ccc(C(F)(F)F)cc3)CC2)OO1 (mixture of isomers)	87.17	73.36	inactive	inactive			
C=C(c1ccccc1)C1CCOC2(CCC(Nc3ccc(C(F)(F)F)cc3)CC2)OO1 (mixture of isomers)	100	24.32		inactive	40		
CCO[C@H]1O[C@@H]2O[C@@]3(C)CC[C@H]4[C@H](C)CC[C@@H]([C@H]1C)[C@@]24OO3 [ARTEMOTIL]						100	Active
